Results taken from the NIST ThermoML archive (doi:10.1021/je301084m).

Experiment: molar heat capacity at constant pressure; wn = mass fraction of the nth substance listed
Conditions: 101 kPa, Liquid, Small sample (50 mg) DSC

O=[N+]([O-])[O-].[Li+] [lithium nitrate] + O
molar heat capacity at constant pressure [J/K/mol]
Conditions | 303.15 K | 313.15 K | 323.15 K | 333.15 K | 343.15 K | 353.15 K | 363.15 K | 373.15 K
w1 = 0.3 | 79.48 | 80.01 | 80.61 | 81.26 | 81.58 | 82.28 | 82.69 | –
w1 = 0.35 | 78.8 | 79.55 | 80.5 | 81.18 | 81.76 | 82.27 | 82.93 | –
w1 = 0.4 | 78.86 | 79.65 | 80.42 | 81.37 | 81.83 | 82.62 | 83.28 | 84.15
w1 = 0.45 | 80.9 | 81.5 | 81.79 | 82.23 | 82.71 | 83.71 | 84.98 | 86.11
w1 = 0.5 | 82.01 | 82.67 | 83.53 | 83.73 | 84.07 | 84.56 | 85.84 | 86.64
w1 = 0.55 | 83.66 | 84.48 | 84.72 | 84.66 | 85.17 | 86.18 | 87.3 | 88.09
w1 = 0.6 | – | 86.04 | 86.29 | 86.88 | 87.07 | 87.75 | 88.43 | 89.63
